# Data: patent publication US9302999B2, “Substituted triazoles as herbicides” (E. I. DU PONT DE NEMOURS AND COMPANY, priority 2012, dated 2016)
# Tests used:
# Type in all cases: in vivo
# [1] = test system: velvetleaf (Abutilon theophrasti); test: Test A pre-/postemergence: velvetleaf; conditions: 1000 g ai/ha
# How it was run: (§1)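 Seeds were sown in loam/sand blend and sprayed preemergence (directed soil spray) and, simultaneously, postemergence at 2–10 cm, one- to two-leaf stage, using compounds in non-phytotoxic solvent with surfactant. After ~10 days in greenhouse, injury was rated visually versus untreated controls, 0 (no effect) to 100 (complete control).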
# [2] = test system: nutsedge, yellow (yellow nutsedge, Cyperus esculentus); test: Test C pre-/postemergence: nutsedge, yellow; conditions: Postemergence
# How it was run: (§2)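 Preemergence on seeds in loam/sand, postemergence on 2–18 cm (1–4-leaf) plants in peat-based medium; compounds in non-phytotoxic solvent with surfactant. After 13–15 days in greenhouse, visual rating versus controls, 0 (no effect) to 100 (complete control).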
# [3] = test system: morningglory (Ipomoea coccinea); test: Test C pre-/postemergence: morningglory; conditions: Postemergence
# How it was run: as §2
# [4] = test system: blackgrass (Alopecurus myosuroides); test: Test C pre-/postemergence: blackgrass; conditions: Postemergence
# How it was run: as §2
# [5] = test system: morningglory (Ipomoea spp.); test: Test A pre-/postemergence: morningglory; conditions: 1000 g ai/ha
# How it was run: as §1
# [6] = test system: wheat (Triticum aestivum); test: Test A pre-/postemergence: wheat; conditions: 1000 g ai/ha
# How it was run: as §1
# [7] = test system: lambsquarters (Chenopodium album); test: Test C pre-/postemergence: lambsquarters; conditions: Postemergence
# How it was run: as §2
# [8] = test system: barnyardgrass (Echinochloa crus-galli); test: Test A pre-/postemergence: barnyardgrass; conditions: 1000 g ai/ha
# How it was run: as §1
# [9] = test system: chickweed (common chickweed, Stellaria media); test: Test C postemergence: chickweed
# How it was run: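 Pot-grown plants in peat/vermiculite medium sprayed postemergence at 2–18 cm height (1- to 4-leaf stage). Kept in greenhouse 13 to 15 days, then visually rated against untreated controls on a 0–100 scale (0 = no effect, 100 = complete control).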
# [10] = test system: ryegrass, Italian (Italian ryegrass, Lolium multiflorum); test: Test C pre-/postemergence: ryegrass, Italian; conditions: Postemergence
# How it was run: as §2
# [11] = test system: corn (Zea mays); test: Test C pre-/postemergence: corn; conditions: Postemergence
# How it was run: as §2
# [12] = test system: pigweed (Amaranthus retroflexus); test: Test A pre-/postemergence: pigweed; conditions: 1000 g ai/ha
# How it was run: as §1
# [13] = Postemergence, visual rating on 0 to 100 scale (0 no effect, 100 complete control), approximately ten days
# [14] = Preemergence, 0 to 100 scale, 0 is no effect, 100 is complete control
# [15] = 16 g ai/ha, scale 0 to 100, 0 no effect, 100 complete control
# [16] = 31 g ai/ha, scale 0 to 100 (0 no effect, 100 complete control)
# [17] = 62 g ai/ha, scale 0 to 100 (0 no effect, 100 complete control)
# [18] = 125 g ai/ha, scale 0 to 100, 0 no effect, 100 complete control
smiles,measurement,setting,value
Cc1nn(-c2ccc(C(F)(F)F)cc2)nc1Cc1cccc(C(F)(F)F)c1 [Compound 124],Velvetleaf plant response rating,[1]; [13],100
same,Velvetleaf plant response rating,[1]; [14],80
same,"Plant response rating, Nutsedge, Yellow",[2]; [15],0
same,"Plant response rating, Nutsedge, Yellow",[2]; [16],0
same,"Plant response rating, Nutsedge, Yellow",[2]; [17],0
same,"Plant response rating, Nutsedge, Yellow",[2]; [18],0
same,"Plant response rating, Morningglory",[3]; [15],15
same,"Plant response rating, Morningglory",[3]; [16],15
same,"Plant response rating, Morningglory",[3]; [17],40
same,"Plant response rating, Morningglory",[3]; [18],40
same,"Plant response rating, Blackgrass",[4]; [15],0
same,"Plant response rating, Blackgrass",[4]; [16],35
same,"Plant response rating, Blackgrass",[4]; [17],50
same,"Plant response rating, Blackgrass",[4]; [18],85
same,Morningglory plant response rating,[5]; [13],100
same,Morningglory plant response rating,[5]; [14],40
same,Wheat plant response rating,[6]; [13],40
same,Wheat plant response rating,[6]; [14],0
same,"Plant response rating, Lambsquarters",[7]; [15],85
same,"Plant response rating, Lambsquarters",[7]; [16],95
same,"Plant response rating, Lambsquarters",[7]; [17],98
same,"Plant response rating, Lambsquarters",[7]; [18],98
same,Barnyardgrass plant response rating,[8]; [13],70
same,Barnyardgrass plant response rating,[8]; [14],90
same,"Plant response rating, Chickweed",[9]; [15],45
same,"Plant response rating, Chickweed",[9]; [16],50
same,"Plant response rating, Chickweed",[9]; [17],55
same,"Plant response rating, Chickweed",[9]; [18],55
same,"Plant response rating, Ryegrass, Italian",[10]; [15],5
same,"Plant response rating, Ryegrass, Italian",[10]; [16],15
same,"Plant response rating, Ryegrass, Italian",[10]; [17],35
same,"Plant response rating, Ryegrass, Italian",[10]; [18],65
same,"Plant response rating, Corn",[11]; [15],5
same,"Plant response rating, Corn",[11]; [16],20
same,"Plant response rating, Corn",[11]; [17],25
same,"Plant response rating, Corn",[11]; [18],25
same,Pigweed plant response rating,[12]; [13],100
same,Pigweed plant response rating,[12]; [14],100
